Measurements reported in US20050032713A1, “Platelet-activating factor antagonists as analgesic, anti-inflammatory, uterine contraction inhibiting, and anti-tumor agents” (priority 2002, published 2005).
Entries after “also recorded” stand apart in the source; their conditions may differ. Where two headings read alike, the source gives them in different places.

How the values were obtained:
[1] = system: astrocyte-enriched cortical cell cultures; assay: Effect of PAF antagonists on mc-PAF-, lyso-PAF- and AA-induced PGE2 release from astrocytes; assay type: cell-based, rat; conditions: for mc-PAF-induced PGE2 release: antagonist added 30 min before mc-PAF (1 μM), 30 min, BN 50730 0.1-100 μM, BN 52021 and CV 6209 1-50 μM; for AA-induced PGE2 release / lyso-PAF-induced PGE2 release: antagonist added 30 min prior
Description: (§1) All experimental protocols were approved by the Massachusetts Institute of Technology institutional review committee and meet the guidelines of the National Institutes of Health. Dissociated astrocytes were cultured from cortices of postnatal day 1-2 rat pups (as described by K. D. McCarthy, et al., Preparation of separate astroglial and oligodendroglial cell cultures from rat cerebral tissue, J. Cell Biol. 85 (1980) 890-902, with minor modifications R. K. K. Lee, et al., Metabolic glutamate receptors increase amyloid precursor protein processing in astrocytes: inhibition by cyclic AMP, J. Neurochem. 68 (1997) 1830-1835.) In brief, cells from dissociated cortices were plated onto poly-L-lysine coated 35- or 100 mm culture dishes. The initial culture media, minimal essential medium (MEM, Gibco-Life Technologies; Rockville, Md.) containing 15% horse serum (BioWhittaker; Walkersville, Md.), were aspirated 2-5 h after plating to remove unattached cells and debris, and replaced with MEM containing 5% fetal bovine serum (FBS, BioWhittaker; Walkersville, Md.). Half the medium was replaced with MEM/5% FBS twice weekly. Astrocytes were kept at 37° C. in a humidified 5% CO2/95% air incubator for 9-15 days, by which time the cultures were confluent and could be used for experiments.
(§2) Mc-PAF (Biomol; Plymouth Meeting, PA) was dissolved in methanol at a stock concentration of 10 mM. PAF-16, PAF-18, lyso-PAF, AA (Cayman Chemicals), lyso-PC and PC (Sigma) were dissolved in ethanol at stock concentrations of 10 mM. All stock solutions of lipids were stored at −80° C. and were used within 6 weeks of reconstitution. BN 52021 and CV 6209 (Biomol) were dissolved in ethanol. These PAF antagonists were stored at −20° C. in stock concentrations of 100 mM. BN 50730 (Biomeasure; Milford, Mass.) was dissolved in 45% hydroxy-B-cyclodextrin (HBC). All agents were diluted in warned serum-free medium prior to cell stimulation. Equal amounts of vehicle was added to control cells.
(§3) Cells used for all experiments were established in vitro 9-15 days prior to use in experiments and were over 95% confluent. Serum-containing media were changed every 3-4 days. Cells were serum-deprived 24 hours prior to experimental treatments. Where treatment with PAF antagonists is indicated, these compounds were added 30 minutes prior to the addition of other agents.
(§4) PGE2 levels were measured by ELISA according to manufacturer's instructions (Cayman Chemicals, Ann Arbor, Mich.). Since the amount of PGE2 in fresh medium was negligible, (J. Luo, et al., Transforming growth factor B1 regulates the expression of cyclooxygenase in cultured cortical astrocytes and neurons, J. Neurochem. 71 (1998) 526-534), direct assays of the PGE2 concentration in cell-conditioned medium was used as a measurement of PGE2 secretion by cultured cells. Results were derived from at least 3 separate experiments, assayed in duplicate or triplicate (n=6-8). The reliable detection limit of this assay (i.e. sensitivity) averaged 14+/−6 pg of PGE2.

[2] = system: formalin-induced nociception; assay: Formalin test, systemic (i.p.) administration; assay type: in vivo, rat; conditions: for nociceptive response (paw elevation time), early phase: 1-10 minutes post-formalin; for nociceptive response (paw elevation time), early phase / nociceptive response (paw elevation time), late phase: 10, 1 or 0.1 mg/kg i.p. 40 minutes prior to formalin; for nociceptive response (paw elevation time), late phase: 10-60 min post-formalin, vs control-treated rats; for dose-response relationship of decrease in nociceptive behavior: three doses 10, 1, 0.1 mg/kg i.p.
Description: Sixty male Sprague Dawley rats weighing 300-350 g (Taconic Labs, Canada) were housed in groups of 2-3 per cage, in polycarbonate cages. Animals were maintained under standard environmental conditions (room temperature: 20-20° C.; relative humidity: 55-60%; light/dark schedule: 12/12 hr) with free access to standard laboratory chow and tap water.
BN 50730 (Biomeasure; Milford, Mass.) and BN 52021 (Biomol) were dissolved in 45% hydroxypropyl-B-cyclodextrin in distilled water (HBC). Drugs (at doses of 10, 1, or 0.1 mg/kg) or vehicle were administered intraperitoneally (i.p.) 40 minutes prior to formalin injection. The doses chosen were based on those found to produce central effects after their peripheral administration.
Experiments were carried out in accordance with The National Institutes of Health Guide for the Care and Use of Laboratory Animals. Behavioral testing was carried out in a blind manner. Nociceptive responses were examined in the formalin test described previously, (Dubisson et al., The formalin test: a quantitative study of the analgesic effects of morphine, meperidine, and brain stimulation of rats and cats. Pain 4 (1977) 161-174). In brief, animals were placed in a clear Plexiglas® formalin test box (30 cm×30 cm×30 cm), with a mirror positioned at a 45° angle below the floor allowing for unobstructed observation of the animal's paw. Following a 10-min habituation period, animals were removed from the formalin box, at which time 50 μl of 1% formalin was injected subcutaneously (s.c.) into the plantar surface of the right hind paw with a 27-gauge needle. The amount of time that each rat elevated the injected paw was recorded in five-min intervals during the […] period following formalin injection. Each animal was used once.
The 60-min formalin test produced a biphasic response consisting of an initial, rapidly decaying acute phase (early phase, 1-10 minutes after injection) followed by a slow rising and long-lived tonic phase (late phase, 15-60 minutes after injection). Typically animals elevated their paws following injection (i.e. the early phase) followed by a reduction in this behavior. Approximately 15-20 minutes after injection, the inflammatory late phase began, and animals again elevated their paws to varying degrees for the remainder of the testing period. The amount of time animals elevated their injected paw was used as a behavioral measure of pain.
Data were expressed as means+/−SEM, and p values <0.05 were considered statistically significant. Treatment groups were compared with vehicle-controls using one-way analysis of variance (ANOVA) followed by Fischer's PLSD post-hoc test to compare between groups if overall significance was found by ANOVA.

[3] = system: formalin-induced nociception; assay: Formalin test, intra-hippocampal injection; assay type: in vivo, rat
Description: (§5) The day prior to formalin testing, rats were placed in the boxes for a 15 min habituation period. The day of testing, vehicle or PAF antagonists were administered and the rats were placed in the boxes for 20 min. At this time, animals were removed from the box, and 50 μl of 1% formalin (0.4% formaldehyde) was injected subcutaneously into the plantar surface of the right hind paw with a 27-gauge needle. Immediately after injection, each animal was exposed to the open field box for 60 min and the amount of time they elevated their injected paw was recorded as described for previous Examples.
(§6) Upon completion of testing, animals were overdosed with sodium pentobarbitol and perfused with saline followed by 10% formalin solution. Brains were removed, fixed, and cut into 20-μm coronal sections throughout the cannula tract. Sections were then mounted, stained with cresyl violet, and coverslipped. […] The behavioral data for 4 rats were discarded from the study due to incorrect cannulae placement.
(§7) Data were expressed as means+/−SEM and p values <0.05 were considered statistically significant. Experimental groups were compared using a one-way analysis of variance (ANOVA) with repeated measures (5 min blocks of time) followed by Scheffe's post-hoc test. Independent t-tests were used to assess the effects of the PAF antagonists on the individual 5 min bins of time post-formalin as well.

[4] = system: formalin-induced nociception; assay: Formalin test, intrathecal injection (spinal cord); assay type: in vivo, rat; conditions: for nociceptive response: injected intrathecally (into the spinal cord), 10, 1 or 0.1 μg, 20 minutes prior to formalin
Description: as §5, §7

[5] = system: formalin-induced nociception; assay: Formalin test, injection into the lateral ventricle; assay type: in vivo, rat; conditions: for nociceptive response (paw elevation), group effect: lateral ventricle, 10, 1 or 0.1 μg, 20 min prior to formalin, ANOVA
Description: Animals were anesthetized (50 mg/kg sodium pentobarbitol), and unilateral guide cannulae (23 gauge) were implanted into the lateral ventricle. The guide cannulae were attached to the skull using jeweler's screws and dental acrylic. After surgery, stylets were inserted and left in place to ensure cannula patency. The formalin test was conducted 7-10 days post-surgery.
as §5, §6, §7

COX-1 = COX-1 protein level after mc-PAF stimulation (immunocytochemical and Western blot analyses); assay type: cell-based, rat; conditions: within 30 min of mc-PAF stimulation; data not shown
COX-2 = COX-2 protein level after mc-PAF stimulation (immunocytochemical and Western blot analyses); assay type: cell-based, rat; conditions: within 30 min of mc-PAF stimulation; data not shown
[6] = system: astrocyte-enriched cortical cell cultures
[7] = system: primary cortical astrocytes; assay: Effect of COX inhibitors on mc-PAF-induced PGE2 release from primary astrocytes (Example 3); assay type: cell-based, rat; conditions: mc-PAF 0.001 to 1 μM, 30 min
Description: Mc-PAF (Cayman Chemical, Ann Arbor, Mich.) was dissolved in ethanol at a stock concentration of 10 mM. Indomethacin, piroxicam, NS-398 (Biomol; Plymouth Meeting, Mass.), and SC-560 (Cayman Chemical) were dissolved in 45% hydroxy-β-cyclodextrin (HBC; Sigma, St. Louis, Mo.). Cells were serum-deprived for 24 hrs prior to experimental treatments to induce quiescence. Where treatment with inhibitors is indicated, these compounds were added 30 min prior to the addition of mc-PAF.
Direct assay of the PGE2 concentration in cell-conditioned medium was used as an index of PGE2 secretion by primary astrocytes. PGE2 levels were measured by ELISA according to manufacturer's instructions (Cayman Chemicals, Ann Arbor, Mich.), as described.
Results were derived from at least 3 separate experiments, assayed in duplicate or triplicate (n=6−8). Data were expressed as means+/−SEMs. Statistical analyses were performed using ANOVAs for comparisons between groups, followed by Fischer's PLSD post hoc comparisons by means contrast. p values <0.05 were considered statistically significant.

[8] = system: astrocyte-enriched cortical cell cultures; assay: PGE2 release (ELISA) from astrocyte-enriched cortical cell cultures exposed to PAF analogs, related lipids or AA; assay type: cell-based, rat
Description: as §1, §2, §3, §4

SMILES | mc-PAF-induced PGE2 release [1] | AA-induced PGE2 release [1] | lyso-PAF-induced PGE2 release [1] | nociceptive response (paw elevation time), early phase [2] | nociceptive response (paw elevation time), late phase [2] | dose-response relationship of decrease in nociceptive behavior [2] | nociceptive behavior during the tonic or late phase [3] | nociceptive response [4] | nociceptive response (paw elevation), group effect [5] | also measured
C[C@@H]1C(=O)O[C@H]2[C@H](O)[C@@]34[C@H]5C[C@@H](C(C)(C)C)[C@]36[C@@H](OC(=O)[C@@H]6O)O[C@@]4(C(=O)O5)[C@@]12O [BN 52021, ginkolide B] | no significant effect; also recorded: did not significantly influence; also recorded: do not attenuate | had no effect | had no effect | not significantly affected | significantly shorter times; also recorded: decreased nociceptive behavior | a dose-response relationship was not revealed | decreases nociceptive behavior | not | significantly affected | PGE2 release, antagonist administered alone ([1]; no mc-PAF): PGE2 release was increased; comparative efficacy when administered to the brain ([5]; administered to the brain (Example 4)): more effective than BN 50730; paw elevation at 50 min post-formalin ([5]; lateral ventricle, 1 μg): decreased paw elevation; levels of paw elevation between 30 and 45 min post-formalin ([5]; lateral ventricle, 10 and 1 μg, independent t-tests): significantly attenuated; nociceptive responses compared with control-treated rats ([5]; lateral ventricle, 10 or 1 μg, Scheffe's post-hoc): significantly diminished
COc1ccc(NC(=S)N2CCc3c(sc4c3C(c3ccccc3Cl)=NCc3nnc(C)n3-4)C2)cc1 [BN 50730] | attenuates; also recorded: prevented; also recorded: completely abolished | significantly attenuated; also recorded: only attenuated; also recorded: attenuates | significantly attenuated; also recorded: completely abolished; also recorded: attenuates | not significantly affected | significantly shorter paw elevation times; also recorded: decreased nociceptive behavior | a dose-response relationship was not revealed | not | decreased the nociceptive response | not significantly affected | basal release of PGE2 ([1]; higher concentrations of BN 50730): reduce the basal release of PGE2; comparative efficacy when administered to the spinal cord ([4]; administered to the spinal cord (Example 4)): more effective than BN 52021
CCCCCCCCCCCCCCCCOC[C@H](COP(=O)([O-])OCC[N+](C)(C)C)OC(=O)NC [mc-PAF, methylcarbamyl-PAF] | – | – | – | – | – | – | – | – | – | COX-1 protein levels (COX-1): did not increase; COX-2 protein levels (COX-2): did not increase; toxicity to cells ([6]; 1 μM mc-PAF): does not appear to have toxic effects; toxicity to cells ([6]; 10 μM mc-PAF, 24 hours): cytologic evidence of toxicity; release of PGE2 into the conditioned media [7]: concentration-dependent increases; time at which PGE2 levels returned to baseline ([8]; 1 μM mc-PAF): ≤ 12 h; time of maximum mobilization of PGE2 ([8]; 1 μM mc-PAF): 30 min; time of second, smaller peak of PGE2 release ([8]; 1 μM mc-PAF): 8 h; time to first observed increase in PGE2 release ([8]; 1 μM mc-PAF): ≤ 5 min; PGE2 release over time ([8]; 1 μM mc-PAF, 37° C., various times): time-dependent increase; PGE2 release into the conditioned media ([8]; 30 min, 37° C., various concentrations): concentration-dependent increases
